What all share (assay type): functional
Assay [1] concerns Cricetomys gambianus. Briefly: Rodenticidal activity against invasive Cricetomys gambianus (Gambian giant pouched rat) assessed as proportion of bait consumed using 0.0025% compound pellets bait by 7 day multiple-choice feeding trail method.
Assay [2] has as its system Cricetomys gambianus. Briefly: Rodenticidal activity against invasive Cricetomys gambianus (Gambian giant pouched rat) assessed as mean duration to death using 0.0025% compound pellets bait by 7 day multiple-choice feeding trail method.
Assay [3] has as its system Cricetomys gambianus. Kind of assay: Rodenticidal activity against invasive Cricetomys gambianus (Gambian giant pouched rat) assessed as mean bait consumed using 0.0025% compound pellets bait by 7 day multiple-choice feeding trail method.
The test system of assay [4] is Cricetomys gambianus. Kind of assay: Rodenticidal activity against invasive Cricetomys gambianus (Gambian giant pouched rat) assessed as rodent body weight using 0.0025% compound pellets bait by 7 day multiple-choice feeding trail method (reference value: 1.44 kg).
Assay [5] concerns Cricetomys gambianus. Kind of assay: Rodenticidal activity against invasive Cricetomys gambianus (Gambian giant pouched rat) assessed as rodent mortality using 0.0025% compound pellets bait by 7 day multiple-choice feeding trail method.
Assay [6] concerns Cricetomys gambianus. Briefly: Rodenticidal activity against invasive Cricetomys gambianus (Gambian giant pouched rat) assessed as proportion of bait consumed using 0.01% compound blocks bait by 7 day multiple-choice feeding trail method.
The test system of assay [7] is Cricetomys gambianus. Kind of assay: Rodenticidal activity against invasive Cricetomys gambianus (Gambian giant pouched rat) assessed as mean duration to death using 0.01% compound blocks bait by 7 day multiple-choice feeding trail method.
Assay [8] concerns Cricetomys gambianus. Kind of assay: Rodenticidal activity against invasive Cricetomys gambianus (Gambian giant pouched rat) assessed as rodent body weight using 0.01% compound blocks bait by 7 day multiple-choice feeding trail method (reference value: 1.44 kg).
The test system of assay [9] is Cricetomys gambianus. Briefly: Rodenticidal activity against invasive Cricetomys gambianus (Gambian giant pouched rat) assessed as rodent mortality using 0.01% compound blocks bait by 7 day multiple-choice feeding trail method.
Assay [10] concerns Cricetomys gambianus. Briefly: Rodenticidal activity against invasive Cricetomys gambianus (Gambian giant pouched rat) assessed as mean bait consumed using 0.01% compound blocks bait by 7 day multiple-choice feeding trail method.
In assay [11] the test system is Cricetomys gambianus. Kind of assay: Rodenticidal activity against invasive Cricetomys gambianus (Gambian giant pouched rat) assessed as proportion of bait consumed using 0.0005% compound pellets bait by 7 day multiple-choice feeding trail method.
The test system of assay [12] is Cricetomys gambianus. Kind of assay: Rodenticidal activity against invasive Cricetomys gambianus (Gambian giant pouched rat) assessed as mean duration to death using 0.0005% compound pellets bait by 7 day multiple-choice feeding trail method.
The test system of assay [13] is Cricetomys gambianus. Kind of assay: Rodenticidal activity against invasive Cricetomys gambianus (Gambian giant pouched rat) assessed as rodent body weight using 0.0005% compound pellets bait by 7 day multiple-choice feeding trail method (reference value: 1.44 kg).
In assay [14] the test system is Cricetomys gambianus. Briefly: Rodenticidal activity against invasive Cricetomys gambianus (Gambian giant pouched rat) assessed as rodent mortality using 0.0005% compound pellets bait by 7 day multiple-choice feeding trail method.
Assay [15] deals with Cricetomys gambianus. Kind of assay: Rodenticidal activity against invasive Cricetomys gambianus (Gambian giant pouched rat) assessed as mean bait consumed using 0.0005% compound pellets bait by 7 day multiple-choice feeding trail method.
Assay [16] has as its system Cricetomys gambianus. Briefly: Rodenticidal activity against invasive Cricetomys gambianus (Gambian giant pouched rat) assessed as proportion of bait consumed using 0.005% compound blocks bait by 7 day multiple-choice feeding trail method.
Assay [17] concerns Cricetomys gambianus. Briefly: Rodenticidal activity against invasive Cricetomys gambianus (Gambian giant pouched rat) assessed as mean bait consumed using 0.005% compound pellets bait by 7 day multiple-choice feeding trail method.
In assay [18] the test system is Cricetomys gambianus. Briefly: Rodenticidal activity against invasive Cricetomys gambianus (Gambian giant pouched rat) assessed as mean duration to death using 0.005% compound blocks bait by 7 day multiple-choice feeding trail method.
Assay [19] concerns Cricetomys gambianus. Kind of assay: Rodenticidal activity against invasive Cricetomys gambianus (Gambian giant pouched rat) assessed as proportion of bait consumed using 0.005% compound pellets bait by 7 day multiple-choice feeding trail method.
Assay [20] deals with Cricetomys gambianus. Briefly: Rodenticidal activity against invasive Cricetomys gambianus (Gambian giant pouched rat) assessed as rodent body weight using 0.005% compound pellets bait by 7 day multiple-choice feeding trail method (reference value: 1.44 kg).
Assay [21] has as its system Cricetomys gambianus. Briefly: Rodenticidal activity against invasive Cricetomys gambianus (Gambian giant pouched rat) assessed as rodent body weight using 0.005% compound blocks bait by 7 day multiple-choice feeding trail method (reference value: 1.44 kg).
For assay [22], the system named is Cricetomys gambianus. Kind of assay: Rodenticidal activity against invasive Cricetomys gambianus (Gambian giant pouched rat) assessed as rodent mortality using 0.005% compound pellets bait by 7 day multiple-choice feeding trail method.
For assay [23], the system named is Cricetomys gambianus. Briefly: Rodenticidal activity against invasive Cricetomys gambianus (Gambian giant pouched rat) assessed as rodent mortality using 0.005% compound blocks bait by 7 day multiple-choice feeding trail method.
Assay [24] relates to Cricetomys gambianus. Briefly: Rodenticidal activity against invasive Cricetomys gambianus (Gambian giant pouched rat) assessed as mean bait consumed using 0.005% compound blocks bait by 7 day multiple-choice feeding trail method.

Turning to `O=c1oc2ccccc2c(O)c1C1CC(c2ccc(-c3ccc(Br)cc3)cc2)Cc2ccccc21` (centres undefined) [BRODIFACOUM], the Activity in assay [1] was determined as 0.39%; in assay [3], 89 g; in assay [4], 1.37 kg; in assay [5] it was 100%. Besides, in [2], the Time was determined as 12.2 days.
In the case of `CN(c1c(Br)cc(Br)cc1Br)c1c([N+](=O)[O-])cc([N+](=O)[O-])cc1C(F)(F)F` [BROMETHALIN], the Activity in assay [6] was determined as 0.21%; in assay [8] it was 1.55 kg; in assay [9], 20%; in [10] it was 25.58 g. Moreover, the Time in [7] turned out to be 14 days.
As to `O=C1c2ccccc2C(=O)C1C(=O)C(c1ccccc1)c1ccc(Cl)cc1` (centres undefined) [CHLOROPHACINONE], the Activity in assay [11] worked out at 0.3%; in [13], 1.47 kg; in assay [14] it was 50%; in assay [15] it was 89.7 g. Further, the Time in [12] came out at 11.7 days.
Regarding `O=C1c2ccccc2C(=O)C1C(=O)C(c1ccccc1)c1ccccc1` [DIPHENADIONE], the Activity in assay [16] was found to be 0.3%; in assay [17], 106.2 g; in assay [19], 0.35%; in assay [20], 1.47 kg; in assay [21], 1.5 kg; in [22], 0%. The Activity is reported as 17% in [23] and 92.6 g in assay [24]. The Time in assay [18] was found to be 12 days.

The values above are taken from ChEMBL document CHEMBL3045384, “Evaluating commercially available rodenticide baits for invasive Gambian giant pouched rats (Cricetomys gambianus)” (2010).
